Laboratory results as given in PubChem BioAssay (NCI).
Values joined by “and” are separate entries in the source; they are usually repeats but may differ in a detail not shown here. Equal values may be shown once.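 Results reflect a 48-hour exposure of cells in 96-well plates to compound at five concentrations. GI50: concentration for 50% inhibition of growth. The concentration for full growth arrest is given as TGI.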

How the values were obtained:
Experiment in all cases: inhibition of tumour cell growth, NCI panel, 48 h
[1] = system: LOX IMVI melanoma
[2] = system: SF-268 CNS
[3] = system: NCI-H23 lung
[4] = system: NCI/ADR-RES ovarian
[5] = system: A549 NSCLC
[6] = system: HT29 colon
[7] = system: OVCAR-5 ovarian
[8] = system: SK-OV-3 ovarian
[9] = system: HOP-62 NSCLC
[10] = system: A498 renal

Row | SMILES | GI50 [1] | TGI [1] | GI50 [2] | TGI [2] | GI50 [3] | TGI [3] | GI50 [4] | TGI [4] | GI50 [5] | TGI [5] | GI50 [6] | TGI [6] | GI50 [7] | TGI [7] | GI50 [8] | TGI [8] | GI50 [9] | TGI [9] | TGI [10] | GI50 [10]
1 | CCCCCCCCCC(CCCC(O)CC(=O)O)OC1OC(COC2OC(C)C(OC(C)=O)C(O)C2O)C(O)C(O)C1OC1OC(CO)C(O)C(O)C1OC1OC(C)C(OC(=O)CC(C)C)C(O)C1O (centres undefined) | > 35 µM | > 35 µM | > 35 µM | > 35 µM | > 35 µM | > 35 µM | > 35 µM | > 35 µM | > 35 µM | > 35 µM | > 35 µM | > 35 µM | > 35 µM | > 35 µM | > 35 µM | > 35 µM | > 35 µM | > 35 µM | – | –
2 | N#C/C(=C\c1cc(O)ccc1O)C(N)=O | – | – | – | > 100 µM | – | > 100 µM | – | – | – | > 100 µM | – | > 100 µM | – | > 100 µM | – | > 100 µM | – | > 100 µM | > 100 µM | –
3 | Cc1cc(=O)n(-c2c(C)cccc2Cl)c(/C=C(\O)c2ccncc2)n1 | – | > 100 µM | – | > 100 µM | – | > 100 µM | – | – | – | > 100 µM | – | > 100 µM | – | > 100 µM | – | > 100 µM | – | > 100 µM | > 100 µM | –
4 | CC(=O)OC(C)(C)/C=C/C(=O)[C@](C)(O)[C@H]1[C@H](O)C[C@@]2(C)[C@@H]3CC=C4[C@@H](C=C(O)C(=O)C4(C)C)[C@]3(C)C(=O)C[C@]12C | – | – | – | – | – | – | – | 5.45 µM and 6.12 µM and 5.39 µM | – | 6.51 µM and 1.23 µM and 2.65 µM | – | – | – | 6.67 µM and 4.02 µM and 1.09 µM | – | – | – | – | – | –
5 | O=C(CO[N+](=O)[O-])OC/C=C/c1ccccc1 | – | > 100 µM | – | > 100 µM | – | > 100 µM | – | – | – | > 100 µM | – | > 100 µM | – | > 100 µM | – | > 100 µM | – | > 100 µM | – | –
6 | Cc1ccc(-c2nc(N3CCNCC3)c3oc(-c4ccccc4)nc3n2)cc1 | 1.88 µM | 3.43 µM | 2.07 µM | 5.07 µM | 3.07 µM | 16.7 µM | – | – | 1.66 µM | 3.13 µM | 1.78 µM | 3.32 µM | 1.68 µM | 3.36 µM | 15.7 µM | 29.5 µM | 1.96 µM | 4.48 µM | 28.8 µM | 14.5 µM
7 | C/C(=N\n1c(O)c(C#N)cc(C#N)c1=O)c1ccncc1 | > 100 µM | > 100 µM | > 100 µM | > 100 µM | > 100 µM | > 100 µM | > 100 µM | > 100 µM | > 100 µM | > 100 µM | > 100 µM | > 100 µM | > 100 µM | > 100 µM | > 100 µM | > 100 µM | > 100 µM | > 100 µM | – | –
8 | CC1CCC(=O)C(C(O)CC2CC(=O)N(c3ccccc3)C(=O)C2)C1 (centres undefined) | – | > 100 µM | – | > 100 µM | – | > 100 µM | – | – | – | > 100 µM | – | > 100 µM | – | > 100 µM | – | > 100 µM | – | > 100 µM | > 100 µM | –
9 | CC(=O)OCC1OC(OCc2ccccc2)C(Br)C(OC(C)=O)C1OC(C)=O (centres undefined) | – | > 100 µM | – | > 100 µM | – | > 100 µM | – | – | – | > 100 µM | – | > 100 µM | – | > 100 µM | – | – | – | > 100 µM | > 100 µM | –
10 | COc1cc2c(cc1O)CN1CCC23C=C[C@@H](O)CC13 (some centres undefined) | – | > 100 µM | – | > 100 µM | – | > 100 µM | – | – | – | > 100 µM | – | > 100 µM | – | > 100 µM | – | > 100 µM | – | > 100 µM | > 100 µM | –
11 | CCOc1ccc(OCC)c([P+](c2ccccc2)(c2ccccc2)c2ccccc2)c1 | – | 3.1 µM | – | 24.4 µM | – | 1.17 µM | – | – | – | 11.6 µM | – | 12.9 µM | – | 6.91 µM | – | – | – | 3.92 µM | 4.42 µM | –
12 | O=S(=O)(c1ccccc1)N1CN2CN(C1)CN(S(=O)(=O)c1ccccc1)C2 | – | > 100 µM | – | – | – | > 100 µM | – | > 100 µM | – | > 100 µM | – | > 100 µM | – | > 100 µM | – | > 100 µM | – | > 100 µM | > 100 µM | –
13 | OCc1ccc(N2CCc3cc(F)ccc3C2)cc1Cl | 9.7 µM | 24.5 µM | 15.2 µM | 29.9 µM | 12.8 µM | 30.2 µM | 11.3 µM | 33.7 µM | 0.389 µM | 14.5 µM | 0.167 µM | 14.1 µM | – | – | 3.85 µM | 15.9 µM | 0.302 µM | 17.9 µM | 0.0756 µM | 0.0206 µM
14 | O=C1c2ccccc2C(=O)c2c1ccc1c(=O)n(-c3ccccc3C(F)(F)F)nnc21 | 1.59 µM | 4.2 µM | 2.74 µM | > 100 µM | 1.34 µM | 3.51 µM | 2.05 µM | 9.23 µM | – | – | 3.43 µM | > 100 µM | 2.19 µM | 6.01 µM | 3.52 µM | > 100 µM | 1.28 µM | 19.1 µM | 3.65 µM | 1.76 µM
15 | CN(NC1OC(CO)C(O)C(O)C1O)c1ccccc1 (centres undefined) | – | > 100 µM | – | > 100 µM | – | > 100 µM | – | – | – | > 100 µM | – | > 100 µM | – | > 100 µM | – | – | – | > 100 µM | – | –
16 | CC(=O)Nc1ccc(/C=C2\N=C(c3ccccc3)OC2=O)cc1 | – | > 100 µM | – | > 100 µM | – | > 100 µM | – | – | – | > 100 µM | – | – | – | > 100 µM | – | > 100 µM | – | > 100 µM | – | –
17 | COc1cc(/C=C/C(=O)/C=C/c2cc3ccc(Cl)cc3n(Cc3ccccc3)c2=O)ccc1O | 1.29 µM | 2.61 µM | 2.16 µM | 7.47 µM | 1.79 µM | 4.65 µM | 2.86 µM | > 100 µM | 2.05 µM | 5.03 µM | 0.424 µM | 1.68 µM | 2.65 µM | 5.78 µM | 5.95 µM | 57.1 µM | 2.75 µM | 7.08 µM | – | –
18 | O=CNc1ccc(S(=O)(=O)c2ccc(NC=O)cc2)cc1 | – | > 100 µM | – | > 100 µM | – | > 100 µM | – | > 100 µM | – | > 100 µM | – | > 100 µM | – | > 100 µM | – | > 100 µM | – | > 100 µM | – | –
19 | COC1OC(CBr)C(OC(=O)c2ccccc2)C(OS(=O)(=O)c2ccc(C)cc2)C1Br (centres undefined) | – | > 100 µM | – | > 100 µM | – | > 100 µM | – | – | – | > 100 µM | – | > 100 µM | – | – | – | – | – | > 100 µM | > 100 µM | –
